Results published in patent publication US20240391928A1, “COMPOSITIONS FOR THE TREATMENT OF FOOD AND CHEMICAL ADDICTION AND METHODS OF MAKING AND USING SAME” (Duke University, priority 2021, published 2024).

Tests used:
Format in all cases: cell-based
[1] = system: human hGHSR1a-vasopressin receptor 2 tail chimera; test: β-arr2^GFP translocation, compound screening (U2OS); details: secondary assay of HTS hits; for Beta-arrestin translocation ECmax (%): normalized to L585; for EC50: read-out: Beta-arrestin translocation EC50
[2] = biological target: T1, hGHSR1a^WT in Gαq/11 KO HEK293/S cells (Homo sapiens, UniProt Q92847); test: iCa2+ in Gαq/11 KO HEK293/S cells; details: 10 μM ligand
T1 construct: expressed in transfected cells; SRF-RE reporter); HEK293/S Gαq/11 KO and parental WT (iCa2+)
Protocol: (§1) For experiments with WT and Gt KO HEK293/S cells, […] of hGHSR1a^WT, 10 μg of miAEQ, and 2.5 μg of pcDNA3.1 was transiently transfected into 10 cm dishes and incubated overnight. […] Twenty-four hours later, experiments proceeded in accordance with the procedures described above. To control for any possible kinetic differences in genetically modified cell lines or GHSR1a variants, the average ligand-induced response over 10 seconds was calculated, then normalized by dividing the L-miAeq by the L-miAeq plus the Lysis-miAeq and normalized to the appropriate control/reference condition.

hGHSR1a^WT = hGHSR1a^WT (Homo sapiens, UniProt Q92847); test: Gαq-dependent intracellular Ca2+ mobilization (iCa2+, miAeq); design: HEK293/T (transient); HEK293S Gαq knockout (transient, NanoBiT Gαq); details: for Calcium signaling ECmax (%) / EC50: secondary assay of HTS hits; for Calcium signaling ECmax (%): normalized to L585; for EC50: read-out: Calcium signaling EC50
Protocol: Gαq-Dependent Intracellular Ca^2+ Mobilization. […] Cells were split into and seeded into 10 cm dishes without antibiotic selection and grown to confluency overnight. The next morning, cells were serum starved in 10 mL of clear opti-MEM (supplemented with L-glutamine and HEPES; Gibco, Waltham, MA) for 3-4 hours in a 37° C. incubator with 5% CO2. Then, 25 μL of coelenterazine H (NanoLight Technology, Pinetop, AZ) was added to each 10 mL dish and incubated for another 1-2 hours. For antagonist assays, test compounds were either added directly to the media in 10 cm dishes, or cells were collected by gentle washing/trituration and plated onto white, clear-bottomed 96-well plates for 30 minutes—1 hour. Once the coelenterazine H (or antagonist) incubation was complete, cells were harvested from the 10 cm dish by gentle washing/trituration and collected in a 15 mL conical tube. Cell suspensions were then immediately subjected to assay by injecting cells onto a white, clear-bottomed 96-well plate containing 2× test compounds. Luminescence was read without delay and for 10 seconds per well. To control for cell number variability, cells were lysed in 2× lysis buffer (100 mM CaCl2+0.2% Triton-X) immediately following the assay. The max ligand-induced response (Ca^2+ mobilization: net-miAeq) over 10 seconds was normalized by dividing the ligand-induced luminescence counts (L-miAeq) by the ligand-induced luminescence counts (L-MiAeq) plus the luminescence measured upon cell lysis (Lysis-miAeq). Relative, lysis-normalized data were then normalized to the appropriate control/reference condition.
as §1

hGHSR1a^WT, sequence (Q92847 whole entry): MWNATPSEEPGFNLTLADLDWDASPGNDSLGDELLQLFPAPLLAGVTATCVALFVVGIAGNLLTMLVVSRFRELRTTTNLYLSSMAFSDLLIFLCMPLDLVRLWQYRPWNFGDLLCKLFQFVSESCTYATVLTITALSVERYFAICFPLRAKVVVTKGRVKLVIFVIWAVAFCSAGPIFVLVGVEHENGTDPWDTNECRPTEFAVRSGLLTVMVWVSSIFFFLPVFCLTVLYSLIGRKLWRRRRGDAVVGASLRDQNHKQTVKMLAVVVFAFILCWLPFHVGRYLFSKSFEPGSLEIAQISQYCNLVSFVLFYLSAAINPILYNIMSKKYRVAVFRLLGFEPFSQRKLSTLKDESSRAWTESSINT
T1 sequence (Q92847 whole entry): as above

| SMILES | Beta-arrestin translocation ECmax (%) [1] | EC50 [1] | agonist-induced iCa2+ in Gαq/11 KO cells [2] | Calcium signaling ECmax (%) (hGHSR1a^WT) | EC50 (hGHSR1a^WT) | activity of re-synthesized molecule in words (hGHSR1a^WT; re-synthesized material) | potency and efficacy relative to L585 in words (hGHSR1a^WT; screening sample) |
| --- | --- | --- | --- | --- | --- | --- | --- |
| C[C@@H](O)CNC(C)(C)CC(=O)N[C@@H]1CCc2ccccc2N(Cc2ccc(-c3ccccc3-c3nn[nH]n3)cc2)C1=O [Example L626.585, reference compound] | 100% | 24 nM | abolished | 100% | 14.6 nM |  |  |
| COc1ccc(OC)c(C2c3c(oc4ccc(C)cc4c3=O)C(=O)N2CCCN(C)C)c1 (stereo not drawn) [NCGC00136184] | 24% | 2330 nM |  | 129% | 13100 nM |  |  |
| CCOc1ccc(C2c3c(oc4ccc(C)cc4c3=O)C(=O)N2CCCN2CCOCC2)cc1 (stereo not drawn) [NCGC00141056] | 19% | 2.19 nM |  | 68% | 938 nM |  |  |
| CCOc1ccc(C2c3c(oc4ccc(C)cc4c3=O)C(=O)N2CCCN(C)C)cc1 (stereo not drawn) [NCGC00141058] | 142% | 2030 nM |  | 97% | 1290 nM |  |  |
| COc1ccc(C2c3c(oc4ccc(C)cc4c3=O)C(=O)N2CCCN2CCOCC2)cc1OC (stereo not drawn) [NCGC00141954] | 196% | 5330 nM |  | 105% | 714 nM |  |  |
| CCOc1ccc(C2c3c(oc4ccc(C)cc4c3=O)C(=O)N2CCCN(C)C)cc1OC (stereo not drawn) [NCGC00141956] | 107% | 2310 nM |  | 105% | 332 nM | could not be confirmed | sub-μM potency and full efficacy |
